“And” between values parts separate entries of the source, which are not always exact repeats. Identical values can stand only once. Counter-ions that a name gives are not always drawn.
Columns and labels:
[1] = tested on: acetic acid ulcer; assay: Therapeutic effect in rat acetic acid chronic ulcer model; format: in vivo, Wister male rats; details: 0.5 ml daily once for 2 weeks, eighth week; for Average ulcer coefficient: 3 rats; for Ulcer coefficient: individual rats
Description: That is, the rats were anesthetized under Nembutal and the belly was cut along the midline to remove the stomach. Then, a cylinder of […] in diameter charged with absorbent cotton impregnated sufficiently with 100% acetic acid was pressed against the border between the stomach and the pyloric region for about 30 seconds, and the acetic acid adhering to the serous membrane was wiped off with a germ-free gauze, and the belly was sutured. After 6 weeks, one rat was picked up as the control at random from the untreated group, killed and dissected to confirm ulcer formation. […] In the seventh and eight weeks, one untreated rat selected at random was killed and the belly was opened to reconfirm formation of stomach ulcer. Each rat was killed in the eight week and the area of the ulcer was measured, and the ulcer coefficient was determined according to a method of Okabe et al. (Okabe S, Roth […] method for experimental penetrating gastric and duodenal ulcers in rats. Observation on normal healing. Amer J Dig Dis 16: 277-284, 1971).

[2] = tested on: indomethacin ulcer; assay: Therapeutic effect in indomethacin ulcer rat model; format: in vivo, Wister male rats; parameters: key: no bleeding was expressed as negative (−); trace bleeding was given (±); dotted bleeding (+); broad bleeding (++); details: individual rats; given 3 hours after indomethacin 20 mg/kg; judged after 24 hours; PGE1 3.3 μg/kg
Experimental: 3 hours after administration of indomethacin, prostaglandin (PGE1) liquid preparation No. 41 (containing alprostadil alfadex as the medicine), PGE1 solution dissolved in purified water in a dose of 3.3 μg/kg in weight as a positive control, the liquid matrix only was administered as a negative control, and purified water only for confirming formation of ulcer to the untreated group, respectively, was administered. After 1 hour, the rats were given feed. The untreated group after 3 hours from administration of indomethacin and the other groups after 24 hours were killed, and dissected to judge ulcer and bleeding in the stomach.
Indomethacin ulcer in the fasted rats is different from that in humans, and develops in the stomach without generating in the pyloric vestibule. Therefore, judgment was made on the basis of bleeding. That is, no bleeding was expressed as negative (−), trace bleeding was given (±), dotted bleeding (+), and broad bleeding (++).

[3] = rat, in vivo, 20 mg/kg
Experimental: These rats were fasted for 24 hours, and then indomethacin (IND) suspended in 1% carboxymethyl cellulose (CMS) solution was administered in a dose of 20 mg/kg to the rats via an oral probe for rat into the stomach to induce indomethacin ulcer.

NC[C@H]1CC[C@H](C(=O)Oc2ccc(CCC(=O)O)cc2)CC1 [Cetraxate HCl solution, cetraxate hydrochloride]
Average ulcer coefficient [1]: 2.33
Ulcer coefficient ([1]; hydrochloride): 2 (2 for 11 to 20 mm^2) (2×) and 3 (3 for 21 to 30 mm^2)

CN/C(=N/CCSCc1nc[nH]c1C)NC#N [Cimetidine solution, cimetidine]
Average ulcer coefficient [1]: 2.67
Ulcer coefficient [1]: 3 (3 for 21 to 30 mm^2) (2×) and 2 (2 for 11 to 20 mm^2)

CCCCC[C@H](O)/C=C/[C@H]1[C@H](O)CC(=O)[C@@H]1CCCCCCC(=O)O [PEG1 solution, prostaglandin (PGE1)]
Judgment of bleeding in the stomach [2]: ± (3×) and + and −

CC(=O)CC/C=C(\C)CC/C=C(\C)CC/C=C(\C)CCC=C(C)C [Teprenone solution, teprenone]
Average ulcer coefficient [1]: 2.33
Ulcer coefficient [1]: 3 (3 for 21 to 30 mm^2) and 2 (2 for 11 to 20 mm^2) (2×)

COc1ccc2c(c1)c(CC(=O)O)c(C)n2C(=O)c1ccc(Cl)cc1 [indomethacin]
Time at which blood concentration reached the maximum ([3]; male, Wister): 3 h
Finding in the stomach [3]: erosive bleeding was observed in the stomach
